Patent publication US20260242427A1 (priority 2024, published 2026)

Assays:
[1] = target: T1, hArg-Cry1Ab fusion particles (human arginase I fused to the N-terminus of Cry1Ab) (Homo sapiens, UniProt P05089); assay: Kinetic studies, immobilized hArg-Cry1Ab particles; format: biochemical; details: L-arginine 0-500 mM, 40° C., pH 8.0, 0.1 mM Mn^2+, based on concentration of hArg
T1 construct: His tag of pET28 (inferred from the NdeI forward primer only) (N); made in house; host or cells: E. coli BL21(DE3)
T1 sequence (P05089 other isoform, or with tags, fused parts or gaps): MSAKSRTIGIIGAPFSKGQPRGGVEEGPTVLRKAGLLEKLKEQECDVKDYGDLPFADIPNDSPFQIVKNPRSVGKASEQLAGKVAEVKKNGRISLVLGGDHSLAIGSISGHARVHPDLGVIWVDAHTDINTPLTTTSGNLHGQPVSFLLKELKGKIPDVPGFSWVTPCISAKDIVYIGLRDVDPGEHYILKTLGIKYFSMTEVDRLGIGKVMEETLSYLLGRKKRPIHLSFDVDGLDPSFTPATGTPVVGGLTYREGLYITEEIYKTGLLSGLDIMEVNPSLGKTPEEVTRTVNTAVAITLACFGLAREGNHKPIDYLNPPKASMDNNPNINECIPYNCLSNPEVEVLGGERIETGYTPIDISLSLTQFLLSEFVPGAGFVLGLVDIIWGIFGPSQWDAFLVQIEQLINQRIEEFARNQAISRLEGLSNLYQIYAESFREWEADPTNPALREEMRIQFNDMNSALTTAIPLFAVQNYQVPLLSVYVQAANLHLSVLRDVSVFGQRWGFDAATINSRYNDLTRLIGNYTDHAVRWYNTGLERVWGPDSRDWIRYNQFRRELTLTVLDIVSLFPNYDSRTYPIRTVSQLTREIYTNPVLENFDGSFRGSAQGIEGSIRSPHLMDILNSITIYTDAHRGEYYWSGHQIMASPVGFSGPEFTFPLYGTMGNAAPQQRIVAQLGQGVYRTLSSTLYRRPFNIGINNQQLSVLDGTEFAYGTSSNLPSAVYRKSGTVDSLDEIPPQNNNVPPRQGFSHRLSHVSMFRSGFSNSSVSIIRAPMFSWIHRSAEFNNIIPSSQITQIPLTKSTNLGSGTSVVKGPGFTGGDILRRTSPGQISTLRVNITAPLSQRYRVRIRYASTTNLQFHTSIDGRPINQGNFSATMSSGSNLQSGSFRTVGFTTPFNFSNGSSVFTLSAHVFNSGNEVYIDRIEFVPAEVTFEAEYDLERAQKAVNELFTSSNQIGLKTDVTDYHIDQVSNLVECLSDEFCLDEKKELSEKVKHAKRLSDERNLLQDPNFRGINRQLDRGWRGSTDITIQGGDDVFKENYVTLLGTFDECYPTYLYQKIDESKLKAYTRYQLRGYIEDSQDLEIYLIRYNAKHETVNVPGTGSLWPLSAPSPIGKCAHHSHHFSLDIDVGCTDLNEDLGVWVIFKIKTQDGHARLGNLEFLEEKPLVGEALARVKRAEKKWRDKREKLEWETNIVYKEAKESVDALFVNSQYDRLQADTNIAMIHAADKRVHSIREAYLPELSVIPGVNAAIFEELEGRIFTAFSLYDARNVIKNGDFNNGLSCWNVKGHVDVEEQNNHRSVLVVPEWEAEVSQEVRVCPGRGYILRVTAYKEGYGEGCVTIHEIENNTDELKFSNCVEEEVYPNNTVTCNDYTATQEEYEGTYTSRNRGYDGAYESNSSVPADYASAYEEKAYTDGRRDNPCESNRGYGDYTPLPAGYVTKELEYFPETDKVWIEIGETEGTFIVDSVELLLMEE

[2] = target: T2, human arginase I (hArg, Accession Number: NM_000045.4), free enzyme (Homo sapiens, UniProt P05089); format: biochemical; details: L-arginine 0-500 mM, 40° C., 50 mM HEPES pH 8.0, 0.1 mM Mn^2+
T2 construct: His tag with thrombin site of pET28 (inferred from the NdeI primer, the stop codon in the reverse primer and nickel purification); made in house; host or cells: E. coli BL21(DE3)
T2 sequence (P05089 whole entry): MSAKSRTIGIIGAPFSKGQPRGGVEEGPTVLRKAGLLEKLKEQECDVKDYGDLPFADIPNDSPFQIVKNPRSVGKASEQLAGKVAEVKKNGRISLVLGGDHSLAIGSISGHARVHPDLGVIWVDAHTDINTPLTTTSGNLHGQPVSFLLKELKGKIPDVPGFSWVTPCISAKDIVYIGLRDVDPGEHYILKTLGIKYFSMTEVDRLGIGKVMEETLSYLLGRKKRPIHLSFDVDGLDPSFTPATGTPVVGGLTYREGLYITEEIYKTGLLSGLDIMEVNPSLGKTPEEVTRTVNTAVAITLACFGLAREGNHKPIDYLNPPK
Description: All positive colonies were verified by DNA sequencing (BGI).
Expression and Purification of ODC and hArg Free Enzymes
(§1) All experiments were performed in triplicate.
as §1

[3] = target: T3, Pos3Aa crystals (positively charged variant of Cry3Aa, domain II surface residues mutated) (Bacillus thuringiensis, UniProt P0A379); assay: NADH binding capacity of Pos3Aa crystals; details: 0.25 mM NADH, 10° C., 30 min, 340 nm
T3 construct: engineered Cry3Aa, domain II surface residues replaced by Lys/Arg; no PEI; crystals produced in Bacillus thuringiensis (usual host)
Description: Previous studies by our lab had generated a positively charged variant of Cry3Aa, Pos3Aa, by mutating multiple residues on the surface of domain II of Cry3Aa to lysines creating a positively charged surface.
To compare the binding capacity of 3A-PEI crystals with Cry3Aa and Pos3Aa crystals, the same experiment was conducted as the control.
Cry3Aa is a self-crystallization protein produced naturally by certain strains of Bt. Our group has used crystals and particles of Cry3Aa for entrapment of positively charged small peptides and proteins due to the presence of abundant negatively charged residues, aspartic acid (Asp) and glutamic acid (Glu) residues, on the exposed surface of its domain II, which forms the solvent channels (FIG. 1A). We have engineered a protein called Pos3Aa, derived from the replacement of all these residues in domain II of Cry3Aa with positively charged arginine (Arg) and lysine (Lys) residues, which provide positively charged channels within the crystals. We hypothesized that these crystals would be able to entrap negatively charged molecules, such as phosphorylated cofactors, ionically inside the channels. […] Each molecular mass unit of this polymer (43 kDa) has 3 to 3.6-fold higher protonated nitrogen than poly-Arg and poly-Lys (one positive charge per 157 and 129 molecular masses), respectively. […]

[4] = target: T4, 3A-PEI crystals (polyethylenimine-modified Cry3Aa, Bacillus thuringiensis) (Bacillus thuringiensis subsp. tenebrionis, UniProt P0A379); assay: NADH binding capacity of 3A-PEI crystals; details: NaPB 25 mM
T4 construct: made in house; host or cells: Bacillus thuringiensis BT407G
T4 sequence (P0A379 1-644): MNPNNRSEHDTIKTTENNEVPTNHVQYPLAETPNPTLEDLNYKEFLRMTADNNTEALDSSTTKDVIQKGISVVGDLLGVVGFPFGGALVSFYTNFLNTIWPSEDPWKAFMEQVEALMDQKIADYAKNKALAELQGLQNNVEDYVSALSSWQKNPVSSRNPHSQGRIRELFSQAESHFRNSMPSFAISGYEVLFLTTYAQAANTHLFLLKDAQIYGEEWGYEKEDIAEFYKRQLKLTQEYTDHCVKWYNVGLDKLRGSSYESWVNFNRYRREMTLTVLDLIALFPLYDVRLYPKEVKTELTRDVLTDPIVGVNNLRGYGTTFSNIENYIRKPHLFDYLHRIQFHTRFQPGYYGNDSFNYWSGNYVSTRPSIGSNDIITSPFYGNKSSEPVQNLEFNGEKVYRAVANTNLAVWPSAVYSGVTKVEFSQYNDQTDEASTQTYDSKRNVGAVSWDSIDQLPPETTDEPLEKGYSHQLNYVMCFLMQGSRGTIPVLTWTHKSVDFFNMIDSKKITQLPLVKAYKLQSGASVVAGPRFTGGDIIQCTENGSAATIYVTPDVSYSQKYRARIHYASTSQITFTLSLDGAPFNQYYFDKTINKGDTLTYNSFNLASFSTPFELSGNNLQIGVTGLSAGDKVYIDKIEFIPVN

[5] = target: T2, human arginase I (hArg, Accession Number: NM_000045.4), free enzyme; assay: Effect of urea on the activity of hArg; format: biochemical; details: 0 to 1 M urea, 40° C., 6 h
Description: as §1, §1

N=C(N)NCCC[C@H](N)C(=O)O [L-arginine]
kcat [1]: 59.7 ± 0.8 s⁻¹ | Km ([1]; read-out: appKm): 18.5 ± 0.3 mM | kcat [2]: 99.9 ± 1.7 s⁻¹ | Km ([2]; read-out: appKm): 20 ± 1.3 mM

NC(=O)C1=CN([C@@H]2O[C@H](COP(=O)(O)OP(=O)(O)OC[C@H]3O[C@@H](n4cnc5c(N)ncnc54)[C@H](O)[C@@H]3O)[C@@H](O)[C@H]2O)C=CC1 [NADH, nicotinamide adenine dinucleotide]
NADH binding capacity [3]: 11.2 ± 0.7 µmol/g | NADH binding capacity ([4]; pH 6.0): 453.5 ± 2.8 µmol/g | NADH binding capacity ([4]; pH 7.0): 412 ± 4 µmol/g | NADH binding capacity ([4]; pH 8.0): 350.2 ± 3.6 µmol/g

NC(N)=O [urea]
effect of urea on activity [5]: unaffected
